Results on 20 molecules are retold here after patent US12662465B2, “EGFR inhibitors” (Blueprint Medicines Corporation, priority 2021, dated 2026).

The target in one assay is T1, EGFR L858R (Homo sapiens, UniProt P00533, L858R).
T1 construct: purchased SignalChem E10-122BG
Description: Biochemical EGFR inhibition assay (Caliper mobility shift), EGFR L858R. The conditions noted are these: read-out: Enz EGFR_L858R IC50.

The next assay concerns the target T2, EGFR (d746-750) (Homo sapiens, UniProt P00533, DEL746-750).
T2 construct: purchased SignalChem E10-122JG
Nature of the assay: Biochemical EGFR inhibition assay (Caliper mobility shift), EGFR (d746-750). The conditions noted are these: read-out: Enz EGFR_Exon19-del746-750 IC50.

The target in assay [1] is intracellular phosphorylation of EGFR (Tyr1068) in PC-9 cells (Ex19Del) (Homo sapiens, UniProt P00533, DEL746-750). Nature of the assay: PC-9 pEGFR AlphaLISA assay. Type of assay: cell-based. The conditions noted are these: 4 hours compound incubation, read-out: Ext pEGFR_PC-9 Ex19Del IC50. A general note: In Alpha technology, singlet oxygen from a donor bead excites a nearby acceptor bead.

The mark [2] stands for this setting: 1.0 mM ATP or ATP Km, room temperature (25° C.).

Where two headings read alike, the source gives them in different places.

T2 sequence (P00533 with tags, fused parts or gaps DEL746-750 limits assumed): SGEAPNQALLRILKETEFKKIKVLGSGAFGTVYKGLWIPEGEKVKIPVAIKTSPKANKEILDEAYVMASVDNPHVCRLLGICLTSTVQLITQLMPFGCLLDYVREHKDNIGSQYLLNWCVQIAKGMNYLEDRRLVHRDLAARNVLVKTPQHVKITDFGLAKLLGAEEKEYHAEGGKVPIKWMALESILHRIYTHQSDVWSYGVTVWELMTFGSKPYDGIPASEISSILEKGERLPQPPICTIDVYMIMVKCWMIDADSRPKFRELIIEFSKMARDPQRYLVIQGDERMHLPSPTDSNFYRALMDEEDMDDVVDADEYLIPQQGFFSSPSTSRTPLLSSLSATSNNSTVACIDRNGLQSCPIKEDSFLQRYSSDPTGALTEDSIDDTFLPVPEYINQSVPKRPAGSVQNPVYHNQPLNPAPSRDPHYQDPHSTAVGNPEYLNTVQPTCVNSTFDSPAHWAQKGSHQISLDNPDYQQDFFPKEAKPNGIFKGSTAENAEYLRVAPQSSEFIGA
T1 sequence (P00533 25-1210 L858R): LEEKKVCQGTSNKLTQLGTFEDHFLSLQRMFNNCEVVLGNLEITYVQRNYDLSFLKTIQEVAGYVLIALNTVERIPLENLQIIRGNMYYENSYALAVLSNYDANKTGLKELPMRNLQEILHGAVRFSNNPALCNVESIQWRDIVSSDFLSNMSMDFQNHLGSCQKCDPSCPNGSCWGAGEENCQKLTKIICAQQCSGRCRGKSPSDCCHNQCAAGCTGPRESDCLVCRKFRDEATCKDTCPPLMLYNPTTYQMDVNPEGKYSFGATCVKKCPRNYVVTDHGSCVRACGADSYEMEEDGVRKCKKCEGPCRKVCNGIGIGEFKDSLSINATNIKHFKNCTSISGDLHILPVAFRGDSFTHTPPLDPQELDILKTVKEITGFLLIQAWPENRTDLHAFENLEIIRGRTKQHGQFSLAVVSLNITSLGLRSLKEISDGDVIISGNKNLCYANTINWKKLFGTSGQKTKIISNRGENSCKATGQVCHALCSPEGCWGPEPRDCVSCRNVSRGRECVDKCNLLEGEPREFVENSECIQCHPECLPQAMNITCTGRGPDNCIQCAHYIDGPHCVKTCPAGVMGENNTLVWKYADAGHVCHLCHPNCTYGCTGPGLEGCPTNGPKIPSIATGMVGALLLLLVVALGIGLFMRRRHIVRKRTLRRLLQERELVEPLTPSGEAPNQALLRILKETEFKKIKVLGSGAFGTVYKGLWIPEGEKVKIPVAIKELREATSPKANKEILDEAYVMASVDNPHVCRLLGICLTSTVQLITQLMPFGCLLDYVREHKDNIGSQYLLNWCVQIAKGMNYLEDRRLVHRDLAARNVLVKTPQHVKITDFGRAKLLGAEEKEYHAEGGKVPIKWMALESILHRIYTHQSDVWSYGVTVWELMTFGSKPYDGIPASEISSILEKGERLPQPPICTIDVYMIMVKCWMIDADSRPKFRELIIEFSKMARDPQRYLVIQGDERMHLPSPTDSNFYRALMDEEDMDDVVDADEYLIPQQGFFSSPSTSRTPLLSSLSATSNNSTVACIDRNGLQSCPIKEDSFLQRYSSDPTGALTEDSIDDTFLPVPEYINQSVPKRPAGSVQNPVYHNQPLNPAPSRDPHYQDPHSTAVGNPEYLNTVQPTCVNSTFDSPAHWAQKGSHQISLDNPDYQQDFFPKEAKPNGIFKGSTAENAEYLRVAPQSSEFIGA
Chain of intracellular phosphorylation of EGFR (Tyr1068) in PC-9 cells (Ex19Del) (P00533 with tags, fused parts or gaps DEL746-750): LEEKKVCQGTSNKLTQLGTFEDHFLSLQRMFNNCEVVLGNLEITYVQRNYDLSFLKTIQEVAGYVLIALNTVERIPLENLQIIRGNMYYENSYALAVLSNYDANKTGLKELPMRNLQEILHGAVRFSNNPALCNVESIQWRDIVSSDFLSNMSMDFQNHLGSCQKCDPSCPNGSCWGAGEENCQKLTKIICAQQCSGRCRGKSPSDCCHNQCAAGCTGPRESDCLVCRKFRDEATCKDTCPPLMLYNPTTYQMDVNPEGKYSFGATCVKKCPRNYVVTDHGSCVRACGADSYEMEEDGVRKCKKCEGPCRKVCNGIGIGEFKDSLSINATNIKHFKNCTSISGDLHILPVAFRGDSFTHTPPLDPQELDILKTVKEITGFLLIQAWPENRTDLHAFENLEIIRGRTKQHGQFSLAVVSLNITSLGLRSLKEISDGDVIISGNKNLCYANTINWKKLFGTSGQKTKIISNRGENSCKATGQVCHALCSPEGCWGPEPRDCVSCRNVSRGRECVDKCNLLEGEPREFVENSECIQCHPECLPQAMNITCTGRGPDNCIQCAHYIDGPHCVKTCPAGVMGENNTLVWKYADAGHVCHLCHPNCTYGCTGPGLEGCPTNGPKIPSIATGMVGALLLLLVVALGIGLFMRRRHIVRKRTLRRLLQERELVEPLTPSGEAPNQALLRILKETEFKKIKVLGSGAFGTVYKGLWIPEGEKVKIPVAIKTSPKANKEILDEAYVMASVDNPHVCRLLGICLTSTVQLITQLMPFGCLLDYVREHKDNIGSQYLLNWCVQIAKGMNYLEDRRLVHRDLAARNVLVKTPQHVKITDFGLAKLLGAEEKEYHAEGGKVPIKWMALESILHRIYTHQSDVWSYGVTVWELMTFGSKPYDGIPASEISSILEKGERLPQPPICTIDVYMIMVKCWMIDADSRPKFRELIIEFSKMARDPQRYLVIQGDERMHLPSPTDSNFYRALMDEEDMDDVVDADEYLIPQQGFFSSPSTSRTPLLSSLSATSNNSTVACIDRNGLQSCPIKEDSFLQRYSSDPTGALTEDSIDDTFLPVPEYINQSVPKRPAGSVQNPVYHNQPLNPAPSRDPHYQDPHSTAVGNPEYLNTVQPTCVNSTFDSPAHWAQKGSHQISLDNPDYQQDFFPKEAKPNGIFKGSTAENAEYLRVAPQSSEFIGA

Usually IC50 stands for the concentration that inhibits the measured activity by half. In the case of `CO[C@H]1CCN(c2cc(O[C@H](C)C3COC3)c3c(Nc4ccc5ncccc5c4F)ncnc3c2)C1` (single isomer, unassigned) [Example 85b, N-(5-fluoroquinolin-6-yl)-7-((S)-3-methoxypyrrolidin-1-yl)-5-((R)-1-(oxetan-3-yl)ethoxy)quinazolin-4-amine or N-(5-fluoroquinolin-6-yl)-7-((R)-3-methoxypyrrolidin-1-yl)-5-((R)-1-(oxetan-3-yl)ethoxy)quinazolin-4-amine], the IC50 at EGFR L858R (setting [2]) is < 10 nM; on EGFR (d746-750) (setting [2]), < 10 nM; in assay [1] it was ≤ 10 nM.
For `C[C@H](CN(C)C)Oc1cc(-c2cnn(C)c2)cc2ncnc(Nc3ccc4ncccc4c3F)c12` [Example 6, (R)-5-((1-(dimethylamino)propan-2-yl)oxy)-N-(5-fluoroquinolin-6-yl)-7-(1-methyl-1H-pyrazol-4-yl)quinazolin-4-amine], the IC50 on EGFR L858R was < 10 nM; at EGFR (d746-750), < 10 nM; in assay [1] it was ≤ 10 nM.
Regarding `C[C@@H](Oc1cc(N2CC[C@@H](C(C)(C)O)C2)cc2ncnc(Nc3ccc4ncccc4c3F)c12)C1COC1` [Example 63, 2—((R)-1-(4-((5-fluoroquinolin-6-yl)amino)-5-((R)-1-(oxetan-3-yl)ethoxy)quinazolin-7-yl)pyrrolidin-3-yl)propan-2-ol], the IC50 on EGFR L858R was < 10 nM; on EGFR (d746-750) it was < 10 nM; in assay [1] it was ≤ 10 nM.
With `C[C@H](CN(C)C)Oc1cc(N2CC3(CCS3(=O)=O)C2)cc2ncnc(Nc3ccc4ncccc4c3F)c12` [Example 97, (R)-6-(5-((1-(dimethylamino)propan-2-yl)oxy)-4-((5-fluoroquinolin-6-yl)amino)quinazolin-7-yl)-1-thia-6-azaspiro[3.3]heptane 1,1-dioxide], the IC50 was < 10 nM on EGFR L858R, < 10 nM at EGFR (d746-750) and ≤ 10 nM in assay [1].
Regarding `CC(CN(C)C)Oc1cc(N2CC3CC(C2)O3)cc2ncnc(Nc3ccc4ncccc4c3)c12` (racemic) [Example 66, 7-(6-oxa-3-azabicyclo[3.1.1]heptan-3-yl)-5-(((R)-1-(dimethylamino)propan-2-yl)oxy)-N-(quinolin-6-yl)quinazolin-4-amine and 7-(6-oxa-3-azabicyclo[3.1.1]heptan-3-yl)-5-(((S)-1-(dimethylamino)propan-2-yl)oxy)-N-(quinolin-6-yl)quinazolin-4-amine], the IC50 is 10.1 to 50 nM at EGFR L858R, < 10 nM on EGFR (d746-750) and ≤ 10 nM in assay [1].
`CN(C)[C@@H]1CC[C@H]1Oc1cc(-c2cnn(C)c2)cc2ncnc(Nc3ccc4ncccc4c3F)c12` (single isomer, unassigned) [Example 141, 5-((1R,2R)-2-(dimethylamino)cyclobutoxy)-N-(5-fluoroquinolin-6-yl)-7-(1-methyl-1H-pyrazol-4-yl)quinazolin-4-amine or 5-((1S,2S)-2-(dimethylamino)cyclobutoxy)-N-(5-fluoroquinolin-6-yl)-7-(1-methyl-1H-pyrazol-4-yl)quinazolin-4-amine]: the IC50 at EGFR L858R (setting [2]) was 10.1 to 50 nM; at EGFR (d746-750) (setting [2]), 10.1 to 50 nM; in assay [1], > 50.1 nM.
Consider `C[C@H](CN(C)C)Oc1cc(-c2cnn(C)c2)cc2ncnc(Nc3ccc4ncccc4c3)c12` (single isomer, unassigned) [Example 43, (R)-5-((1-(dimethylamino)propan-2-yl)oxy)-7-(1-methyl-1H-pyrazol-4-yl)-N-(quinolin-6-yl)quinazolin-4-amine or (S)-5-((1-(dimethylamino)propan-2-yl)oxy)-7-(1-methyl-1H-pyrazol-4-yl)-N-(quinolin-6-yl)quinazolin-4-amine], for which the IC50 on EGFR L858R (setting [2]) was > 50.1 nM; on EGFR (d746-750) (setting [2]), 10.1 to 50 nM; in assay [1] it was > 50.1 nM.
Consider `C[C@H](CN(C)C)Oc1cc(N(C)C)cc2ncnc(Nc3ccc4ncccc4c3F)c12` [Example 153, (R)-5-((1-(dimethylamino)propan-2-yl)oxy)-N4-(5-fluoroquinolin-6-yl)-N7,N7-dimethylquinazoline-4,7-diamine], for which the 50% inhibitory concentration (IC50) was 10.1 to 50 nM on EGFR L858R, < 10 nM on EGFR (d746-750) and ≤ 10 nM in assay [1].
For `CC[C@H](CN(C)C)Oc1cc(-c2cnn(C)c2)cc2ncnc(Nc3ccc4ncccc4c3F)c12` [Example 24, (R)-5-((1-(dimethylamino)butan-2-yl)oxy)-N-(5-fluoroquinolin-6-yl)-7-(1-methyl-1H-pyrazol-4-yl)quinazolin-4-amine], in that order: < 10 nM, < 10 nM and ≤ 10 nM.
Taken in the same sequence, the figures for `C[C@H](CN(C)C)Oc1cc(-n2cc(F)cn2)cc2ncnc(Nc3ccc4ncccc4c3F)c12` [Example 82, (R)-5-((1-(dimethylamino)propan-2-yl)oxy)-7-(4-fluoro-1H-pyrazol-1-yl)-N-(5-fluoroquinolin-6-yl)quinazolin-4-amine] were < 10 nM, < 10 nM and ≤ 10 nM.
For `CO[C@H]1CCN(c2cc3ncnc(Nc4ccc5ncccc5c4F)c3c(OC(C)CN(C)C)n2)C1` (stereo in doubt) [Example 77, 5—(((S)-1-(dimethylamino)propan-2-yl)oxy)-N-(5-fluoroquinolin-6-yl)-7-((S)-3-methoxypyrrolidin-1-yl)pyrido[4,3-d]pyrimidin-4-amine], in that order: 10.1 to 50 nM, < 10 nM and 10.1 to 50 nM.
For the molecule `CN1CCC(Oc2cc(-c3cnn(CC(F)F)c3)cc3ncnc(Nc4ccc5ncccc5c4F)c23)CC1` [Example 53, 7-(1-(2,2-difluoroethyl)-1H-pyrazol-4-yl)-N-(5-fluoroquinolin-6-yl)-5-((1-methylpiperidin-4-yl)oxy)quinazolin-4-amine], the IC50 is < 10 nM at EGFR L858R, < 10 nM on EGFR (d746-750) and ≤ 10 nM in assay [1].
On to `C[C@H](CN(C)C)Oc1cc(N2CC[C@@H](C(C)(C)O)C2)cc2ncnc(Nc3ccc4ncccc4c3F)c12` [Example 72, 2—((R)-1-(5-(((R)-1-(dimethylamino)propan-2-yl)oxy)-4-((5-fluoroquinolin-6-yl)amino)quinazolin-7-yl)pyrrolidin-3-yl)propan-2-ol], for which the IC50 at EGFR L858R is 10.1 to 50 nM; at EGFR (d746-750) it was < 10 nM; in assay [1] it was 10.1 to 50 nM.
Turning to `C[C@@H](Oc1cc(-c2cnn(C)c2)cc2ncnc(Nc3ccc4ncccc4c3F)c12)[C@@H]1COCCN1` (single isomer, unassigned) [Example 123], the IC50 on EGFR L858R (setting [2]) was < 10 nM; on EGFR (d746-750) (setting [2]), < 10 nM; in assay [1], ≤ 10 nM.
In the case of `CC(CN(C)C)Oc1cc(-c2cnn(C)c2)cc2ncnc(Nc3ccc4ncccc4c3)c12` (racemic) [Example 42, (R)-5-((1-(dimethylamino)propan-2-yl)oxy)-7-(1-methyl-1H-pyrazol-4-yl)-N-(quinolin-6-yl)quinazolin-4-amine and (S)-5-((1-(dimethylamino)propan-2-yl)oxy)-7-(1-methyl-1H-pyrazol-4-yl)-N-(quinolin-6-yl)quinazolin-4-amine], the IC50 is < 10 nM at EGFR L858R, < 10 nM at EGFR (d746-750) and ≤ 10 nM in assay [1].
Turning to `CC(=O)N1C2CC1CN(c1cc(O[C@H](C)CN(C)C)c3c(Nc4ccc5ncccc5c4F)ncnc3c1)C2` [Example 151, 1-(3-(5-(((R)-1-(dimethylamino)propan-2-yl)oxy)-4-((5-fluoroquinolin-6-yl)amino)quinazolin-7-yl)-3,6-diazabicyclo[3.1.1]heptan-6-yl)ethan-1-one], the 50% inhibitory concentration (IC50) at EGFR L858R was > 50.1 nM; on EGFR (d746-750) it was 10.1 to 50 nM; in assay [1], > 50.1 nM.
Take `C[C@H](Oc1cc(-c2cnn(C)c2)cc2ncnc(Nc3ccc4ncccc4c3F)c12)C1CCOCC1` [Example 20, (S)—N-(5-fluoroquinolin-6-yl)-7-(1-methyl-1H-pyrazol-4-yl)-5-(1-(tetrahydro-2H-pyran-4-yl)ethoxy)quinazolin-4-amine. or (R)—N-(5-fluoroquinolin-6-yl)-7-(1-methyl-1H-pyrazol-4-yl)-5-(1-(tetrahydro-2H-pyran-4-yl)ethoxy)quinazolin-4-amine]: the IC50 at EGFR L858R (setting [2]) is < 10 nM; on EGFR (d746-750) (setting [2]), < 10 nM; in assay [1] it was ≤ 10 nM.
As for `CN1CC[C@H](Oc2cc(-c3cnn(C)c3)cc3ncnc(Nc4ccc5ncccc5c4F)c23)C1=O` [Example 25, (S)-3-((4-((5-fluoroquinolin-6-yl)amino)-7-(1-methyl-1H-pyrazol-4-yl)quinazolin-5-yl)oxy)-1-methylpyrrolidin-2-one], the half-inhibitory concentration (IC50) at EGFR L858R was < 10 nM; at EGFR (d746-750), < 10 nM; in assay [1], 10.1 to 50 nM.
On to `[2H]c1ccc2c(F)c(Nc3ncnc4cc(-c5cnn(C)c5)cc(O[C@H](C)CN(C)C)c34)ccc2n1` [Example 155, (R)-5-((1-(dimethylamino)propan-2-yl)oxy)-N-(5-fluoroquinolin-6-yl-2-d)-7-(1-methyl-1H-pyrazol-4-yl)quinazolin-4-amine], for which the results for the IC50 (on EGFR L858R; on EGFR (d746-750); in assay [1]) were < 10 nM, < 10 nM and ≤ 10 nM, respectively.
On to `CC(=O)N1CC2(C1)CN(c1cc(O[C@H](C)CN(C)C)c3c(Nc4ccc5ncccc5c4F)ncnc3c1)C2` [Example 154, (R)-1-(6-(5-((1-(dimethylamino)propan-2-yl)oxy)-4-((5-fluoroquinolin-6-yl)amino)quinazolin-7-yl)-2,6-diazaspiro[3.3]heptan-2-yl)ethan-1-one], for which the IC50 was < 10 nM at EGFR L858R, < 10 nM at EGFR (d746-750) and ≤ 10 nM in assay [1].
